Experiments:
[1] = biological target: Gamma-aminobutyric acid receptor subunit alpha-1 (Rattus norvegicus, UniProt P62813)
[2] = biological target: Gamma-aminobutyric acid receptor subunit alpha-1/alpha-2/beta-2/gamma-2 (Homo sapiens, UniProt P14867+P18507+P47869+P47870); assay type: protein-complex assay
[3] = biological target: T1, Alpha-1A adrenergic receptor (Homo sapiens, UniProt P35348)
T1 sequence (P35348 whole entry): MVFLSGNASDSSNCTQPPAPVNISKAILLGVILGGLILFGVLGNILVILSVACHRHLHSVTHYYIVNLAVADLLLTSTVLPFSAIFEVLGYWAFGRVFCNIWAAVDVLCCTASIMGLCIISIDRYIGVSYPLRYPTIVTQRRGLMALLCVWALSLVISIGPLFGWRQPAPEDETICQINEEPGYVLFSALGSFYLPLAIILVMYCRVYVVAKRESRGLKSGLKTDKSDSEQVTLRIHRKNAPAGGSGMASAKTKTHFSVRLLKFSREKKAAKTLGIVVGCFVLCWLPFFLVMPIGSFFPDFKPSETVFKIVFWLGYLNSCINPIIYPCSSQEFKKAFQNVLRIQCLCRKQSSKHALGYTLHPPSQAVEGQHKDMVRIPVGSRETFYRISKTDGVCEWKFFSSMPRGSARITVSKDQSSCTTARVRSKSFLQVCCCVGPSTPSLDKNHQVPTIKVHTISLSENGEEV
Note: assay procedure not described here.

Gamma-aminobutyric acid receptor subunit alpha-1/alpha-2/beta-2/gamma-2, sequence (P14867 whole entry): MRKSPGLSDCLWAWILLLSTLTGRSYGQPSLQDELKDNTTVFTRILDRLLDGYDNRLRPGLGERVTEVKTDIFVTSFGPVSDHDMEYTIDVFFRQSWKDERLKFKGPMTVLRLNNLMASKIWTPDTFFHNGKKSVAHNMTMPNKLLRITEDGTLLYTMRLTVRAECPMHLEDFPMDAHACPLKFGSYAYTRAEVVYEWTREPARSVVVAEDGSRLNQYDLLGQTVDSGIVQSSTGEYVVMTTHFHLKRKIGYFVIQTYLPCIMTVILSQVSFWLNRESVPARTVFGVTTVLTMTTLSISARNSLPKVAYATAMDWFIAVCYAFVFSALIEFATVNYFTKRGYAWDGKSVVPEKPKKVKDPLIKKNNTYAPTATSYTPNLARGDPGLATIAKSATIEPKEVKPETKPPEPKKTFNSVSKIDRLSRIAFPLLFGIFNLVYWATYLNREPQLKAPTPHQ
Gamma-aminobutyric acid receptor subunit alpha-1/alpha-2/beta-2/gamma-2, sequence (P47870 whole entry): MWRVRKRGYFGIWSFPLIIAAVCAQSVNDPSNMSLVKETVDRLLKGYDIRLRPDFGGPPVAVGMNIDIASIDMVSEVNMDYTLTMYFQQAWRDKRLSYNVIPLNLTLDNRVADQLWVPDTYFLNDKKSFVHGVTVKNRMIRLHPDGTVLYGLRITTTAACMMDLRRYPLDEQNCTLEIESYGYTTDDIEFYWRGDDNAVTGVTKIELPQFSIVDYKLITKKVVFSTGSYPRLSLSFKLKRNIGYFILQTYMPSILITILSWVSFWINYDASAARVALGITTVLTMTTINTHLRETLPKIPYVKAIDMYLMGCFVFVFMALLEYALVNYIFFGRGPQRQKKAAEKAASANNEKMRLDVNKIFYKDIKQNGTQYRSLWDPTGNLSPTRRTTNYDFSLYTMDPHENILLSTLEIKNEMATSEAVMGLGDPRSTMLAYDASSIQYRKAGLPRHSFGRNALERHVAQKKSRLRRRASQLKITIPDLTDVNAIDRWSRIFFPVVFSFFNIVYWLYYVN
Gamma-aminobutyric acid receptor subunit alpha-1/alpha-2/beta-2/gamma-2, sequence (P18507 whole entry): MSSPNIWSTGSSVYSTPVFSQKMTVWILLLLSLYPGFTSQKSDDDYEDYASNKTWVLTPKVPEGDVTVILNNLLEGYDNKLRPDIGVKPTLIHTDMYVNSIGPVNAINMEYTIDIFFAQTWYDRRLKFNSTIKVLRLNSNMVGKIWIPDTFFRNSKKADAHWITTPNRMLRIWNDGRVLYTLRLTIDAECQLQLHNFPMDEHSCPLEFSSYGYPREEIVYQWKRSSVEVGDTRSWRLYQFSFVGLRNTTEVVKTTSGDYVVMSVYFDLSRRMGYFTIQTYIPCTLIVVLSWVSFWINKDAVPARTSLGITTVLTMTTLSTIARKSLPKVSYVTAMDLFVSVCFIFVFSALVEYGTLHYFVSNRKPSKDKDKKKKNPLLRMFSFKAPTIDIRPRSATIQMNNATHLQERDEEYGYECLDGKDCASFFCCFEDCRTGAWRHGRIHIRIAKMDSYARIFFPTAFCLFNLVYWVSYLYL
Gamma-aminobutyric acid receptor subunit alpha-1/alpha-2/beta-2/gamma-2, sequence (P47869 whole entry): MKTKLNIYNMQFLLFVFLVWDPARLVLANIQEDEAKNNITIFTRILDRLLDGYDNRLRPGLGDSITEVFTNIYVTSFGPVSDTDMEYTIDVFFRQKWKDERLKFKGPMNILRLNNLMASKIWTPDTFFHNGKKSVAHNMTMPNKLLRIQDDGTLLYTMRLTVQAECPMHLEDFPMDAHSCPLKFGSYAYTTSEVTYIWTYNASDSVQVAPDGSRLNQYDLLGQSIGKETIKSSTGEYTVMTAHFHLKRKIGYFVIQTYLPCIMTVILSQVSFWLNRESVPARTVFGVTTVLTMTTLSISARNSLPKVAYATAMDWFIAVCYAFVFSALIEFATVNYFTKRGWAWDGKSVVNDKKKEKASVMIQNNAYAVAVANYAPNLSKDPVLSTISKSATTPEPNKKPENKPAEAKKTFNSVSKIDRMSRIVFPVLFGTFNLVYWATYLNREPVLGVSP
Gamma-aminobutyric acid receptor subunit alpha-1, sequence (P62813 whole entry): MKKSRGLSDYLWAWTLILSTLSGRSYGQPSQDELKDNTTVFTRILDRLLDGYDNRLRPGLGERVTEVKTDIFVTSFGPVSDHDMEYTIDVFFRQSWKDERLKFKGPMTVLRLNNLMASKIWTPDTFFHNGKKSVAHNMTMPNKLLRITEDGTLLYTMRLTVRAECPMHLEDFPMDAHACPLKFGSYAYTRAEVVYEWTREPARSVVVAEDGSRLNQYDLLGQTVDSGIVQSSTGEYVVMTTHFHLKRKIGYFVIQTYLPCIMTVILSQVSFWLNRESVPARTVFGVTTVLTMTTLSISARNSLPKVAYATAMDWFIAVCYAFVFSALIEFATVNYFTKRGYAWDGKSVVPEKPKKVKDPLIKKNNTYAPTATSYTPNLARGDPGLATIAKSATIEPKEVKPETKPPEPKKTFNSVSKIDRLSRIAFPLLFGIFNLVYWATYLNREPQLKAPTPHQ

Compound: O=c1[nH]cc(F)c(=O)[nH]1 [FLUOROURACIL]
- AC50 [1]: > 30 µM

Compound: CC(C)Nc1cccnc1N1CCN(C(=O)c2cc3cc(NS(C)(=O)=O)ccc3[nH]2)CC1 [DELAVIRDINE]
- AC50 [2]: > 10 µM

Compound: CO[C@@]1(NC(=O)C(C(=O)O)c2ccc(O)cc2)C(=O)N2C(C(=O)O)=C(CSc3nnnn3C)CO[C@@H]21 (some centres not stated) [MOXALACTAM]
- AC50 [1]: > 30 µM

Compound: CNC1(c2ccccc2Cl)CCCCC1=O (configuration not stated) [KETAMINE]
- AC50 [2]: > 30 µM

Compound: CCN(CCO)CCCC(C)Nc1ccnc2cc(Cl)ccc12 (configuration not stated) [HYDROXYCHLOROQUINE]
- AC50 [3]: > 10 µM

Compound: COC(=O)CCc1ccc(OCC(O)CNC(C)C)cc1 (configuration not stated) [ESMOLOL]
- AC50 [3]: > 30 µM

Compound: Cc1cccc(C)c1NC(=O)c1cc(S(N)(=O)=O)c(Cl)cc1O [XIPAMIDE]
- AC50 [2]: > 30 µM

Compound: C=CCOc1ccc(CC(=O)O)cc1Cl [ALCLOFENAC]
- AC50 [1]: > 30 µM

Compound: O=C(O)COC(=O)Cc1ccccc1Nc1c(Cl)cccc1Cl [ACECLOFENAC]
- AC50 [3]: > 10 µM

Compound: CC(=O)SCC(Cc1ccccc1)C(=O)NCC(=O)OCc1ccccc1 (configuration not stated) [RACECADOTRIL]
- AC50 [3]: > 10 µM

Compound: Cc1ccc(C(C)C)c(O)c1 [THYMOL]
- AC50 [2]: > 30 µM

Compound: N=C(N)NCC1COc2ccccc2O1 (configuration not stated) [GUANOXAN]
- AC50 [1]: > 30 µM

Compound: CNC1(C)C2CCC(C2)C1(C)C (configuration not stated) [MECAMYLAMINE]
- AC50 [3]: > 10 µM

Compound: NCCCCCC(=O)O [AMINOCAPROIC ACID]
- AC50 [3]: > 10 µM

Compound: O=C(c1ccccc1)c1ccc2n1CCC2C(=O)O (configuration not stated) [KETOROLAC]
- AC50 [3]: > 10 µM

Compound: O=NN(CCCl)C(=O)NC1CCCCC1 [LOMUSTINE]
- AC50 [1]: > 30 µM

Compound: CC1=C(C/C=C(\C)CCC[C@H](C)CCC[C@H](C)CCCC(C)C)C(=O)c2ccccc2C1=O [PHYTONADIONE]
- AC50 [2]: > 30 µM

Compound: CN1CCC(N(Cc2cccs2)c2ccccc2)CC1 [THENALIDINE]
- AC50 [1]: > 30 µM

Compound: OCCOCCN1CCN(C(c2ccccc2)c2ccc(Cl)cc2)CC1 (configuration not stated) [HYDROXYZINE]
- AC50 [3]: 1.66 µM

Compound: CN(C)CCCC1(c2ccc(F)cc2)OCc2cc(C#N)ccc21 (configuration not stated) [CITALOPRAM]
- AC50 [1]: > 30 µM

Compound: CCOC(=O)[C@H](CCc1ccccc1)N[C@@H](C)C(=O)N1Cc2ccccc2C[C@H]1C(=O)O
- AC50 [3]: > 10 µM
- AC50 [1]: > 30 µM

Compound: C[C@]12CCC(=O)C=C1CC[C@H]1[C@@H]3CC[C@](O)(C(=O)CO)[C@@]3(C)C[C@H](O)[C@@]12F [FLUDROCORTISONE]
- AC50 [3]: > 10 µM

Compound: CC(C)C[C@H](NC(=O)[C@H](Cc1ccccc1)NC(=O)c1cnccn1)B(O)O [BORTEZOMIB]
- AC50 [3]: > 30 µM

Compound: CN(C)CCN(Cc1ccccc1)c1ccccn1 [TRIPELENNAMINE]
- AC50 [3]: 10.8 µM
- AC50 [1]: > 30 µM

Compound: NC(=O)C1(N2CCCCC2)CCN(CCCC(=O)c2ccc(F)cc2)CC1 [PIPAMPERONE]
- AC50 [2]: > 30 µM

Compound: Cc1cc(C)cc(OCC2CNC(=O)O2)c1 (configuration not stated) [METAXALONE]
- AC50 [1]: > 30 µM

Compound: CCN(CC)CCn1c(=O)c(Cc2ccc(OC)cc2)nc2ccccc21 [CAROVERINE]
- AC50 [3]: 8.9 µM

Compound: O=C(O)[C@@H](S)[C@@H](S)C(=O)O
- AC50 [1]: > 30 µM

Compound: C[C@H](CS)C(=O)N1CCC[C@H]1C(=O)O [CAPTOPRIL]
- AC50 [3]: > 10 µM

Compound: C=CC1=C(C(=O)O)N2C(=O)[C@@H](NC(=O)/C(=N\O)c3csc(N)n3)[C@H]2SC1
- AC50 [3]: > 10 µM

Compound: O=C(O)[C@H](O)[C@@H](O)[C@H](O)[C@H](O)CO [GLUCONIC ACID]
- AC50 [2]: > 30 µM

Compound: O=P1(N(CCCl)CCCl)NCCCO1 (configuration not stated) [CYCLOPHOSPHAMIDE ANHYDROUS]
- AC50 [2]: > 30 µM

Compound: CCC1(c2ccccc2)C(=O)NCNC1=O [PRIMIDONE]
- AC50 [3]: > 10 µM

Compound: CN1CCN(C(c2ccccc2)c2ccc(Cl)cc2)CC1 (configuration not stated) [CHLORCYCLIZINE]
- AC50 [2]: > 30 µM

Compound: Nc1nnc(-c2cccc(Cl)c2Cl)c(N)n1 [LAMOTRIGINE]
- AC50 [3]: > 10 µM

Source: ChEMBL document CHEMBL5291721, “A preclinical secondary pharmacology resource illuminates target-adverse drug reaction associations of marketed drugs” (Nat Commun, 2023)
